The assay deals with L1210 leukemia ip in BDF1 mice, survival T/C. The assay can be described thus: NCI In Vivo Anticancer Drug Screen. Data for tumor model L1210 Leukemia (intraperitoneal) in B6D2F1 (BDF1) mice. To be noted: endpoint: mean survival time, higher = longer survival. The procedure, abridged:
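Antitumor effect is assessed in tumor-bearing animals. Survival in the compound arm is compared with a vehicle-dosed control arm and expressed as their quotient.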

The mark [1] stands for this setting: dose: 100.0 mg/kg/injection, schedule: Q01DX009 (ip), vehicle: saline with Tween-80.
Setting [2] is: dose: 100.0 mg/kg/injection, schedule: Q04DX003 (ip), vehicle: saline with Tween-80.
[3] abbreviates: dose: 200.0 mg/kg/injection, schedule: Q04DX003 (ip), vehicle: saline with Tween-80.
Where [4] appears, read: dose: 400.0 mg/kg/injection, schedule: Q04DX003 (ip), vehicle: saline with Tween-80.
The mark [5] stands for this setting: dose: 50.0 mg/kg/injection, schedule: Q01DX001 (ip), vehicle: carboxymethylcellulose (CMC).
[6] abbreviates: dose: 100.0 mg/kg/injection, schedule: Q01DX001 (ip), vehicle: saline.
[7] abbreviates: dose: 200.0 mg/kg/injection, schedule: Q01DX001 (ip), vehicle: saline.
Setting [8] is: dose: 400.0 mg/kg/injection, schedule: Q01DX001 (ip), vehicle: saline.

Inconclusive results and toxic doses are left out.

In the case of `CCOc1ccccc1CC(=O)O`, the T/C by setting is: under setting [1], 88 % of control; under setting [2], 92 % of control; (dose: 200.0 mg/kg/injection, schedule: Q01DX009 (ip), vehicle: saline with Tween-80) 98 % of control; under setting [3], 87 % of control; (dose: 400.0 mg/kg/injection, schedule: Q01DX009 (ip), vehicle: saline with Tween-80) 101 % of control; under setting [4], 92 % of control.

`COC(=O)CCC(C)(C)[N+](=O)[O-]`: the T/C was 113 % of control (dose: 100.0 mg/kg/injection, schedule: Q01DX009 (ip), vehicle: saline); 104 % of control (dose: 200.0 mg/kg/injection, schedule: Q01DX009 (ip), vehicle: saline); 102 % of control (dose: 400.0 mg/kg/injection, schedule: Q01DX009 (ip), vehicle: saline).

As to `C[n+]1c(-c2cc(Cl)cc(Cl)c2)c2cc([N+](=O)[O-])ccc2c2ccccc21`, the T/C is, setting by setting: (dose: 50.0 mg/kg/injection, schedule: Q01DX009 (ip), vehicle: water) 109 % of control; (dose: 100.0 mg/kg/injection, schedule: Q01DX009 (ip), vehicle: water) 96 % of control; (dose: 100.0 mg/kg/injection, schedule: Q04DX003 (ip), vehicle: water) 92 % of control; (dose: 200.0 mg/kg/injection, schedule: Q01DX009 (ip), vehicle: water) 98 % of control; (dose: 200.0 mg/kg/injection, schedule: Q04DX003 (ip), vehicle: water) 96 % of control; (dose: 400.0 mg/kg/injection, schedule: Q04DX003 (ip), vehicle: water) 93 % of control.

Consider `CC(=O)OCC1OC(n2cc(C)c(=O)[nH]c2=O)C(NC(=O)C(Cl)(Cl)Cl)C(OC(C)=O)C1OC(C)=O` (centres undefined), for which the T/C reads like this: under setting [5], 105 % of control; (dose: 100.0 mg/kg/injection, schedule: Q01DX001 (ip), vehicle: carboxymethylcellulose (CMC)) 96 % of control; (dose: 200.0 mg/kg/injection, schedule: Q01DX001 (ip), vehicle: carboxymethylcellulose (CMC)) 100 % of control; (dose: 400.0 mg/kg/injection, schedule: Q01DX001 (ip), vehicle: carboxymethylcellulose (CMC)) 103 % of control.

As to `CC(=O)OC1CCC2(C)C(CCC3C4CC=C(C(C)=O)C4(C)CCC32)C1` (centres undefined), the T/C is 94 % of control (dose: 100.0 mg/kg/injection, schedule: Q01DX009 (sc), vehicle: steriod suspending solution); 115 % of control (dose: 100.0 mg/kg/injection, schedule: Q04DX003 (sc), vehicle: steriod suspending solution); 109 % of control (dose: 200.0 mg/kg/injection, schedule: Q01DX009 (sc), vehicle: steriod suspending solution); 103 % of control (dose: 200.0 mg/kg/injection, schedule: Q04DX003 (sc), vehicle: steriod suspending solution); 98 % of control (dose: 400.0 mg/kg/injection, schedule: Q01DX009 (sc), vehicle: steriod suspending solution); 105 % of control (dose: 400.0 mg/kg/injection, schedule: Q04DX003 (sc), vehicle: steriod suspending solution).

As to `COc1ccc2nc(N=Nc3c(N)nc(N)nc3N)sc2c1`, the T/C was 96 % of control under setting [6] and 105 % of control under setting [7].

Turning to `CCOC(=O)c1nc(N)n[nH]1`, the T/C is 106 % of control under setting [2], 104 % of control under setting [3] and 101 % of control under setting [4].

On to `NC(=S)Nc1ccccn1`, for which the T/C was 103 % of control (dose: 25.0 mg/kg/injection, schedule: Q01DX009 (ip), vehicle: saline with Tween-80); 90 % of control (dose: 50.0 mg/kg/injection, schedule: Q01DX009 (ip), vehicle: saline with Tween-80); 101 % of control under setting [1]; 98 % of control under setting [2].

For the compound `COc1cccc(NC(=O)Nc2cccc(Cl)c2)c1`, the T/C reads like this: (dose: 100.0 mg/kg/injection, schedule: Q01DX009 (ip), vehicle: Klucel (hydroxypropylcellulose) (HPC)) 94 % of control; (dose: 400.0 mg/kg/injection, schedule: Q01DX009 (ip), vehicle: Klucel (hydroxypropylcellulose) (HPC)) 95 % of control.

As to `Nc1ncnc(N)c1NC(=O)c1cccnc1`, the T/C by setting is: (dose: 100.0 mg/kg/injection, schedule: Q04DX003 (ip), vehicle: saline) 92 % of control; (dose: 200.0 mg/kg/injection, schedule: Q04DX003 (ip), vehicle: saline) 96 % of control; (dose: 400.0 mg/kg/injection, schedule: Q04DX003 (ip), vehicle: saline) 100 % of control.

With `Oc1ccc(O)c2c1C1(Cl)C(Cl)=C(Cl)C2(Cl)C1(Cl)Cl`, the T/C is, setting by setting: (dose: 100.0 mg/kg/injection, schedule: Q04DX003 (ip), vehicle: other) 101 % of control; (dose: 200.0 mg/kg/injection, schedule: Q04DX003 (ip), vehicle: other) 101 % of control; (dose: 400.0 mg/kg/injection, schedule: Q04DX003 (ip), vehicle: other) 108 % of control.

On to `NC1CCSCC1`, for which the T/C by setting is: under setting [6], 104 % of control; under setting [7], 96 % of control; under setting [8], 96 % of control.

With `O=C(CCCCC(=O)NO)NO`, the T/C was 110 % of control (dose: 100.0 mg/kg/injection, schedule: Q04DX002 (ip), vehicle: saline with Tween-80); 103 % of control (dose: 100.0 mg/kg/injection, schedule: Q04DX002 (ip), vehicle: saline); 110 % of control (dose: 200.0 mg/kg/injection, schedule: Q04DX002 (ip), vehicle: saline with Tween-80); 90 % of control (dose: 200.0 mg/kg/injection, schedule: Q04DX002 (ip), vehicle: saline); 107 % of control (dose: 400.0 mg/kg/injection, schedule: Q04DX002 (ip), vehicle: saline with Tween-80); 107 % of control (dose: 400.0 mg/kg/injection, schedule: Q04DX002 (ip), vehicle: saline).

In the case of `O=C(CN1CC1)NCCCCCCCCNC(=O)CN1CC1`, the T/C by setting is: (dose: 4.4 mg/kg/injection, schedule: Q01DX001 (ip), vehicle: carboxymethylcellulose (CMC)) 108 % of control; (dose: 6.6 mg/kg/injection, schedule: Q01DX001 (ip), vehicle: carboxymethylcellulose (CMC)) 115 % of control; (dose: 7.0 mg/kg/injection, schedule: Q01DX009 (ip), vehicle: carboxymethylcellulose (CMC)) 97 % of control; (dose: 10.0 mg/kg/injection, schedule: Q01DX001 (ip), vehicle: carboxymethylcellulose (CMC)) 117 % of control; (dose: 11.0 mg/kg/injection, schedule: Q01DX009 (ip), vehicle: carboxymethylcellulose (CMC)) 112 % of control; (dose: 15.0 mg/kg/injection, schedule: Q01DX001 (ip), vehicle: carboxymethylcellulose (CMC)) 117 % of control. For the same compound, the T/C was 118 % of control (dose: 25.0 mg/kg/injection, schedule: Q01DX009 (ip), vehicle: carboxymethylcellulose (CMC)); 183 % of control (dose: 33.0 mg/kg/injection, schedule: Q01DX009 (ip), vehicle: carboxymethylcellulose (CMC)); 154 % of control (dose: 40.0 mg/kg/injection, schedule: Q04DX003 (ip), vehicle: Klucel (hydroxypropylcellulose) (HPC)); 152 % of control under setting [5]; 104 % of control (dose: 50.0 mg/kg/injection, schedule: Q01DX009 (ip), vehicle: carboxymethylcellulose (CMC)); 173 % of control (dose: 60.0 mg/kg/injection, schedule: Q04DX003 (ip), vehicle: Klucel (hydroxypropylcellulose) (HPC)). The T/C (dose: 90.0 mg/kg/injection, schedule: Q04DX003 (ip), vehicle: Klucel (hydroxypropylcellulose) (HPC)) is 97 % of control.

Take `Clc1ccc(NC2=NCCO2)cc1Cl`: the T/C was 101 % of control (dose: 44.0 mg/kg/injection, schedule: Q04DX003 (ip), vehicle: saline with Tween-80); 103 % of control (dose: 66.0 mg/kg/injection, schedule: Q04DX003 (ip), vehicle: saline with Tween-80); 93 % of control (dose: 150.0 mg/kg/injection, schedule: Q04DX003 (ip), vehicle: saline with Tween-80); 92 % of control under setting [3]; 94 % of control under setting [4].

Take `COC(=O)c1[nH]c(=O)[nH]c(=O)c1[N+](=O)[O-]`: the T/C by setting is: (dose: 75.0 mg/kg/injection, schedule: Q01DX001 (ip), vehicle: saline) 106 % of control; (dose: 150.0 mg/kg/injection, schedule: Q01DX001 (ip), vehicle: saline) 93 % of control; (dose: 300.0 mg/kg/injection, schedule: Q01DX001 (ip), vehicle: saline) 93 % of control.

As for `Nc1ccc(/C=C/c2ccc(N)cc2S(=O)(=O)O)c(S(=O)(=O)O)c1`, the T/C is, setting by setting: (dose: 50.0 mg/kg/injection, schedule: Q01DX001 (ip), vehicle: saline) 97 % of control; under setting [6], 94 % of control; under setting [7], 94 % of control; under setting [8], 97 % of control.

`O=C(Sc1n[nH]c(=O)[nH]c1=O)c1ccccc1`: the T/C was 109 % of control under setting [6], 107 % of control under setting [7] and 105 % of control under setting [8].

For the origin of these results see PubChem BioAssay AID248 (DTP/NCI, 2004).
